Test results: patent US20250188420A1, “MATURING AGENT HAVING BOTH OF ALK5 INHIBITORY ACTIVITY AND CDK8/19 INHIBITORY ACTIVITY” (ORIZURU THERAPEUTICS, INC., priority 2022, published 2025)
Like-named read-outs stand apart in the source and are kept apart here.

What was measured:
[1] = system: Salmonella typhimurium TA1537
Procedure: (§1) The Ames test was conducted according to a conventionally known approach. That is, each bacterial strain of Salmonella typhimurium TA100, TA1535, TA98, and TA1537 strains and an Escherichia coli WP2uvrA strain was mixed with each compound with seven concentrations (78.1 to 5,000 μg/plate), preincubated in vitro for 20 minutes, and then inoculated, together with added semifluid agar, to a minimal glucose agar medium, followed by solidification and incubation at 37° C. for 48 hours. This experiment involved no rat liver S9 fraction because the experiment was aimed at evaluating the mutagenicity of each compound in a cell culture system, not evaluating metabolites obtained after metabolisms by hepatic enzymes. […] Positivity was determined when an average number of revertant colonies in any of the bacterial strains was at least twice or more the average number of the negative control.

[2] = system: Salmonella typhimurium TA100, TA1535, TA98, and TA1537 strains and an Escherichia coli WP2uvrA strain; test: Ames test (mutagenicity evaluation); conditions: no S9 fraction; FIG. 1
Procedure: as §1

ALK5 = target: T1, ALK5 (Homo sapiens, UniProt P36897); test: ALK5-inhibiting activity (FIG. 1); type: biochemical
T1 sequence (P36897 34-503): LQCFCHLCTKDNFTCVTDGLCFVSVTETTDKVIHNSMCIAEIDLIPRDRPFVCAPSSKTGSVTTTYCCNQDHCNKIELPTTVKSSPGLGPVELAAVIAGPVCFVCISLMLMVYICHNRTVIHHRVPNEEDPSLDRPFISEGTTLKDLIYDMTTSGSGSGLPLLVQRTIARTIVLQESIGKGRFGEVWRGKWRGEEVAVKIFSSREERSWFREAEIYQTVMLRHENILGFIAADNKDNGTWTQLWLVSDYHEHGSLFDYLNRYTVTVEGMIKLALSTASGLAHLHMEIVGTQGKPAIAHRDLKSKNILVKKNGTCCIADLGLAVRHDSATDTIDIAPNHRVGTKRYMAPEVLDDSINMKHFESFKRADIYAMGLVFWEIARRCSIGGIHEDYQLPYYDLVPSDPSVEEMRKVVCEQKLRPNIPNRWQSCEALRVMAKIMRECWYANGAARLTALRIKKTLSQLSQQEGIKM

CDK8 and CDK19 (CDK8/19) = test: binding evaluation test of kinase inhibitors against 11 kinases (FIG. 3); conditions: compared among ALK5iII and nonmutagenic ALK5 inhibitors
Procedure: Next, the nonmutagenic ALK5 inhibitors (SB431542, SB525334, IN1130, and EW-7197) were also evaluated for their inhibitory activity against these 11 kinases.

[3] = system: insulin-positive cell population obtained from human iPS cells; test: single-cell RNA-seq analysis of insulin-positive cell populations; type: cell-based; conditions: for typical endocrine cells (clusters #0, #1, #2, #3, and #6) in the insulin-positive cell population: 10 μM ALK5iII, 3 μM SB431542, 0.3 μM Senexin B or combination; for percentage of each cluster (#1, #3, #6, and #12) in insulin-positive and NKX6.1-positive cell subpopulation: versus population produced using ALK5iII, FIG. 5
Procedure: Subsequently, in order to compare cell composition among the respective insulin-positive cell populations produced using the inhibitors (1) to (4), single-cell RNA-seq (scRNA-seq) analysis was conducted. A library for scRNA-seq analysis was prepared using Chromium Controller and a preparation kit (Chromium Next GEM Single Cell 3′ Kits v3.1) from 10× Genomics, Inc. and sequenced using Hi-seq platform from Illumina, Inc. Data on the obtained UMI counts was analyzed using Cell Ranger and R Package Seurat from 10× Genomics, Inc. and subjected to dimensionality reduction and visualization using PCA and UMAP. Cell clustering based on the results of dimensionality reduction was carried out by clustering based on the shared nearest neighbor method of Seurat.
As a result, cell clusters #1 to #17 were identified in the respective insulin-positive cell populations produced using the inhibitors (1) to (4). […] The cells of clusters #3 and #6 had features specific for enterochromaffin cells. […] These cells can thereby be discriminated from the cells of cluster #1 adjacent thereto and are therefore considered to be relatively immature β cells. Some of the β cells might be integrated, together with α cells, δ cells, and γ cells, into cluster #0.

CDK19 = CDK19 (Homo sapiens, UniProt Q9BWU1); conditions: estimated from inhibition at 0.1 μM and 1 μM
CDK19, sequence (Q9BWU1 whole entry, species assumed): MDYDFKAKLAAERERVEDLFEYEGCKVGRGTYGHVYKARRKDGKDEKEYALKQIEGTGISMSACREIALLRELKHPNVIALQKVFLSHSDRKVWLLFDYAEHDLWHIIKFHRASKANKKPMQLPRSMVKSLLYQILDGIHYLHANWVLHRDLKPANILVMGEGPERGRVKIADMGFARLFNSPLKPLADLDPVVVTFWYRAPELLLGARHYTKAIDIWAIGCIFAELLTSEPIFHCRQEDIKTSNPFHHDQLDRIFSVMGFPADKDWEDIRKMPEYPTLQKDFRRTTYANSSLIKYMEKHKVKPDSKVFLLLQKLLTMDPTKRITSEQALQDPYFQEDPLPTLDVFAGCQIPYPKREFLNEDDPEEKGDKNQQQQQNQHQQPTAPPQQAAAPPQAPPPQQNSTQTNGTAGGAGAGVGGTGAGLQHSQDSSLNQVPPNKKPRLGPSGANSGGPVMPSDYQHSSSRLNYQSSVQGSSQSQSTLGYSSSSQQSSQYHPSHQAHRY
CDK19, sequence (P24863 whole entry partner, species assumed): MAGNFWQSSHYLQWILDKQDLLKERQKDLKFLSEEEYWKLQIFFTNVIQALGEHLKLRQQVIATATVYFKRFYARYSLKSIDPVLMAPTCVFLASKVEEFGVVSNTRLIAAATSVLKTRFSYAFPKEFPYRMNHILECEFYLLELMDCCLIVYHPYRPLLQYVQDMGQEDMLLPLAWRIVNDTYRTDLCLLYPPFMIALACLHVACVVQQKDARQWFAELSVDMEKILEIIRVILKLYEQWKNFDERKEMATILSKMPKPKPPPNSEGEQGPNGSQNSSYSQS

TGFBR2 = TGFBR2 (Homo sapiens, UniProt P37173); conditions: estimated from inhibition at 0.1 μM and 1 μM
TGFBR2, sequence (P37173 23-567, species assumed): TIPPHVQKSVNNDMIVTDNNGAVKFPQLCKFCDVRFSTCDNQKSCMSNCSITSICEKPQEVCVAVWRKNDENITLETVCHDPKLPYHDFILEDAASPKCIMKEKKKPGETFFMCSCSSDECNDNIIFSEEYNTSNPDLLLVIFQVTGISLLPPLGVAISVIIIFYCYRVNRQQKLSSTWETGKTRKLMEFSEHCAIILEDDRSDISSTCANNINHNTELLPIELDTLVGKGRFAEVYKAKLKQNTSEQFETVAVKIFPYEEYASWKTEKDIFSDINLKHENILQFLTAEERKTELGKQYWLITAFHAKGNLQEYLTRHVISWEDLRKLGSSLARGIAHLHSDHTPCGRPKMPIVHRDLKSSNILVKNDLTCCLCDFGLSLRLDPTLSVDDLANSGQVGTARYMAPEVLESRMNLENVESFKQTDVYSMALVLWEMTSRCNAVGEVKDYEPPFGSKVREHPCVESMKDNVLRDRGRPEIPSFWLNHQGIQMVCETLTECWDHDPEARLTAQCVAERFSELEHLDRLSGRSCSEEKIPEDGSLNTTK

RIPK2 = RIPK2 (Homo sapiens, UniProt O43353); conditions: estimated from inhibition at 0.1 μM and 1 μM
RIPK2, sequence (O43353 whole entry, species assumed): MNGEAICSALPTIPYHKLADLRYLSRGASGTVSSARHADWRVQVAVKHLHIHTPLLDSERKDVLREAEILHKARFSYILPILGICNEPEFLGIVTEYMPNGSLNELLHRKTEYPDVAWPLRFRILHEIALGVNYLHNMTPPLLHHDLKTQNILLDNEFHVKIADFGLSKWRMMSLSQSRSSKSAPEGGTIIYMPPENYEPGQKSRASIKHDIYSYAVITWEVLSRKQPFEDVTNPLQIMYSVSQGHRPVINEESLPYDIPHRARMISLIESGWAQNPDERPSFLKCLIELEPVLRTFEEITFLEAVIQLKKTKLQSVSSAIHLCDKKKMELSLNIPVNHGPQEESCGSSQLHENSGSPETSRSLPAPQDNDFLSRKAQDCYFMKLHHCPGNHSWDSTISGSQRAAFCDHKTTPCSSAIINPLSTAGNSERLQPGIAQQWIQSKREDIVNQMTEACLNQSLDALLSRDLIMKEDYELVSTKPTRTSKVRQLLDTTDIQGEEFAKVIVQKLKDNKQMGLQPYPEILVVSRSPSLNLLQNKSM

CDK8 = CDK8 (Homo sapiens, UniProt P49336); conditions: estimated from inhibition at 0.1 μM and 1 μM
CDK8, sequence (P49336 whole entry, species assumed): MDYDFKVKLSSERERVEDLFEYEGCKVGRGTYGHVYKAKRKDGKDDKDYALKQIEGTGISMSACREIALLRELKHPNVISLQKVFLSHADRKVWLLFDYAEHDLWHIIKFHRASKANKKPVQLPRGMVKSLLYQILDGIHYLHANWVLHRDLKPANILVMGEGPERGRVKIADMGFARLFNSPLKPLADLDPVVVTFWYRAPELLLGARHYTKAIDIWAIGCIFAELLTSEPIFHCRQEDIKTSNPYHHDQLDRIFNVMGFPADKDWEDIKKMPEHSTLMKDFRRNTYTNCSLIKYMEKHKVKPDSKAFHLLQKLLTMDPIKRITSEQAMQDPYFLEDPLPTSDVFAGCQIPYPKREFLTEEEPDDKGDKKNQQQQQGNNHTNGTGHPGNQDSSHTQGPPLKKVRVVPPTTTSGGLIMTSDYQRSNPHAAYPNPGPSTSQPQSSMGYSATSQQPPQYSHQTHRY
CDK8, sequence (P24863 whole entry partner, species assumed): as the sequence (P24863 whole entry partner, species assumed) above

TNIK = TNIK (Homo sapiens, UniProt Q9UKE5); conditions: estimated from inhibition at 0.1 μM and 1 μM
TNIK, sequence (Q9UKE5 whole entry, species assumed): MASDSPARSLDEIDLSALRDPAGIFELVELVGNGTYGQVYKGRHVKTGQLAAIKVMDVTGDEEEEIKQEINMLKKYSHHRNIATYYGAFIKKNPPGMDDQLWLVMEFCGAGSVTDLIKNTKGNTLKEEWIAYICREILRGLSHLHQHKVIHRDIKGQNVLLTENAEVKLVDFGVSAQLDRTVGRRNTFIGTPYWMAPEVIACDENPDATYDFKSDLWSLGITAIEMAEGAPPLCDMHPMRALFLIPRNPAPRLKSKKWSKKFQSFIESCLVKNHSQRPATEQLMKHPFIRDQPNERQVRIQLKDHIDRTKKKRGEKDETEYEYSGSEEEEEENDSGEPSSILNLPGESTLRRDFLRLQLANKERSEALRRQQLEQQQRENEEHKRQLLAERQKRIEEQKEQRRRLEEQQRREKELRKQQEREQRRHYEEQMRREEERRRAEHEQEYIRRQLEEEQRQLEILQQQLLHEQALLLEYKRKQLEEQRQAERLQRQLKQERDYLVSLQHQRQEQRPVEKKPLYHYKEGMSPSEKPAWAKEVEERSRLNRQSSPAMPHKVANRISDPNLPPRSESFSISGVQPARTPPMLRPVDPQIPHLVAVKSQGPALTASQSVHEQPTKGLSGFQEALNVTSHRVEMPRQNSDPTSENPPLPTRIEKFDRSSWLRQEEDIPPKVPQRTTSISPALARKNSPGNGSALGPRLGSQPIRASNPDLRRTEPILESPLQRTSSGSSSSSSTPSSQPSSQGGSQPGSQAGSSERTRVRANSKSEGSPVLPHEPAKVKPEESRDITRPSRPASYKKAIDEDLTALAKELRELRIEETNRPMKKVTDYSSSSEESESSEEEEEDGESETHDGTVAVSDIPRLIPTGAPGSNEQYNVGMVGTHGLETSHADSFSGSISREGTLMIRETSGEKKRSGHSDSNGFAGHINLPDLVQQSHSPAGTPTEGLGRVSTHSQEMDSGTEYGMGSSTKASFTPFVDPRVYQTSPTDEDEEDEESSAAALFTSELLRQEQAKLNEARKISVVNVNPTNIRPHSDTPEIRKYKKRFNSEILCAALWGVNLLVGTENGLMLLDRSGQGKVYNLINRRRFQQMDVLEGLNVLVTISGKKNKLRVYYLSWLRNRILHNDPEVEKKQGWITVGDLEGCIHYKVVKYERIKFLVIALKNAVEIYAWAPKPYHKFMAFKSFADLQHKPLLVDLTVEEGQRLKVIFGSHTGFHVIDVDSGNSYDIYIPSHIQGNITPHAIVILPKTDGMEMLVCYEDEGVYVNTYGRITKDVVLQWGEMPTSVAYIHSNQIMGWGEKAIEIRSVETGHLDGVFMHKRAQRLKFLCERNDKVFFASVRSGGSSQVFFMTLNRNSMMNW

[4] = system: 11 kinases including CDK8 and CDK19; conditions: 11 of approximately 350 recombinant kinases
[5] = system: pancreatic progenitor cell population obtained from human iPS cells (Ff-I14-s04 line); test: induction of differentiation of pancreatic progenitor cell population into insulin-positive cell population, flow cytometry; type: cell-based
Procedure: In this testing method, the induction of differentiation of human iPS cells (Ff-I14-s04 line) into a pancreatic progenitor cell population was carried out according to the above steps 1)-4), the previous report (Stem Cell Research (2015) 14, 185-197), etc. The induction of differentiation into insulin-positive cells was carried out according to the above step 5), 6), etc.
The number of insulin-positive and NKX6.1-positive cells and the number of CHGA-positive and PDX1-positive cells in the insulin-positive cell population obtained by the above method was counted by flow cytometry to determine the respective proportions of the cells in each cell population.
The number of insulin-positive and NKX6.1-positive cells in the insulin-positive cell population obtained by the above method was counted by flow cytometry to determine the respective proportions of the cells in each cell population.

[6] = system: pancreatic progenitor cell population obtained from human iPS cells (Ff-I14-s04 line); test: as above; type: cell-based; conditions: Example 3; 3 μM SB431542, 0.3 μM Senexin B or both; versus 10 μM ALK5iII, FIG. 4B
[7] = Example 2, SB525334 10 μM, SB431542 10 μM, IN1130 1 μM, EW-7197 1 μM, versus control medium (−)
[8] = Example 3, 3 μM SB431542, 0.3 μM Senexin B or both, versus 10 μM ALK5iII, FIG. 4A

## c1cncc(-c2n[nH]cc2-c2cnc3ccccc3n2)c1 [2-(3-(pyridin-3-yl)-1H-pyrazol-4-yl)quinoxaline]
[1]; TA1537, -S9, 78.1 μg/plate
  # of colony: 5
[1]; TA1537, -S9, 156 μg/plate
  # of colony: 9
[1]; TA1537, -S9, 313 μg/plate
  # of colony: 21
[1]; TA1537, -S9, 625 μg/plate
  # of colony: 45
[1]; TA1537, -S9, 1250 μg/plate
  # of colony: 82
[1]; TA1537, -S9, 2500 μg/plate
  # of colony: 128
[1]; TA1537, -S9, 5000 μg/plate
  # of colony: 194
[2]
  mutagenicity / Ames test determination: positive
ALK5
  ALK5-inhibiting activity: no ALK5-inhibiting activity

## Cc1cccc(-c2n[nH]cc2-c2ccc3ncccc3n2)n1 [ALK5iII, 2-(3-(6-methylpyridin-2-yl)-1H-pyrazol-4-yl)-1,5-naphthyridine]
[1]
  Ames test determination: positive
CDK8 and CDK19 (CDK8/19)
  inhibitory activity against CDK8 and CDK19 (CDK8/19): unique to ALK5iII
[3]; scRNA-seq
  typical endocrine cells (clusters #0, #1, #2, #3, and #6) in the insulin-positive cell population: found with almost no exception
CDK19
  Estimate pIC50 value: 7.18 ± 0.50
TGFBR2
  Estimate pIC50 value: 6.97 ± 0.12
RIPK2
  Estimate pIC50 value: 6.82 ± 0.05
CDK8
  Estimate pIC50 value: 6.80 ± 0.40
TNIK
  Estimate pIC50 value: 6.18 ± 0.14
[4]
  estimate pIC50 value against 11 kinases: more than 6

## Cl.Nc1c2ccccc2nc2ccccc12.O [Compound 9-AA, 9-aminoacridine hydrochloride monohydrate]
[1]; TA1537, -S9, positive control, 80 μg (ALK5 i II experiment)
  # of colony: 169

## Cc1cccc(-c2[nH]c(CNc3ccccc3F)nc2-c2ccc3ncnn3c2)n1 [EW-7197]
CDK8 and CDK19 (CDK8/19)
  inhibitory activity against CDK8 and CDK19 (CDK8/19): unique to ALK5iII
[5]; [7]
  proportion of CHGA-positive and PDX1-positive cells: equivalent to the control
  proportion of insulin-positive and NKX6.1-positive cells: equivalent to the control

## COc1ccc2nc3cc(Cl)ccc3c(NCCCNCCCl)c2c1 [ICR 191]
[1]; TA1537, -S9, positive control, 1.0 μg (quinoxaline analog experiment)
  # of colony: 1804

## Cc1cccc(-c2nc(Cc3cccc(C(N)=O)c3)[nH]c2-c2ccc3nccnc3c2)n1 [IN1130, 3-[[5-(6-Methyl-2-pyridinyl)-4-(6-quinoxalinyl)-1H-imidazol-2-yl]methyl]benzamide]
CDK8 and CDK19 (CDK8/19)
  inhibitory activity against CDK8 and CDK19 (CDK8/19): unique to ALK5iII
[5]; [7]
  proportion of CHGA-positive and PDX1-positive cells: equivalent to the control
  proportion of insulin-positive and NKX6.1-positive cells: equivalent to the control

## NC(=O)c1ccc(-c2nc(-c3ccc4c(c3)OCO4)c(-c3ccccn3)[nH]2)cc1 [SB431542, 4-[4-(1,3-Benzodioxol-5-yl)-5-(2-pyridinyl)-1H-imidazol-2-yl]-benzamide]
[2]
  mutagenicity / Ames test determination: no mutagenicity
CDK8 and CDK19 (CDK8/19)
  inhibitory activity against CDK8 and CDK19 (CDK8/19): unique to ALK5iII
[5]; [7]
  proportion of CHGA-positive and PDX1-positive cells: equivalent to the control
  proportion of insulin-positive and NKX6.1-positive cells: equivalent to the control
[5]; [8]
  proportion of insulin-positive and NKX6.1-positive cells: lower values
[3]; scRNA-seq
  clusters #5, #9, #10, #12, and #13: specialized
  typical endocrine cells (clusters #0, #1, #2, #3, and #6) in the insulin-positive cell population: not found
[3]
  percentage of each cluster (#1, #3, #6, and #12) in insulin-positive and NKX6.1-positive cell subpopulation: different
[6]
  total cell yield: lower values

## Cc1cccc(-c2nc(C(C)(C)C)[nH]c2-c2ccc3nccnc3c2)n1 [SB525334, 6-[2-tert-Butyl-5-(6-methylpyridin-2-yl)-1H-imidazol-4-yl]quinoxaline]
[2]
  mutagenicity / Ames test determination: no mutagenicity
CDK8 and CDK19 (CDK8/19)
  inhibitory activity against CDK8 and CDK19 (CDK8/19): unique to ALK5iII
[5]; [7]
  proportion of CHGA-positive and PDX1-positive cells: equivalent to the control
  proportion of insulin-positive and NKX6.1-positive cells: equivalent to the control

## CN1CCN(C(=O)c2ccc3cc(CCNc4ncnc5ccc(C#N)cc45)ccc3c2)CC1 [Senexin B, 4-((2-(6-(4-Methylpiperazine-1-carbonyl)naphthalen-2-yl)ethyl)amino)quinazoline-6-carbonitrile]
[5]; [8]
  proportion of insulin-positive and NKX6.1-positive cells: higher percentage
[3]; scRNA-seq
  typical endocrine cells (clusters #0, #1, #2, #3, and #6) in the insulin-positive cell population: found with almost no exception
[3]
  percentage of each cluster (#1, #3, #6, and #12) in insulin-positive and NKX6.1-positive cell subpopulation: different
[6]
  total cell yield: lower value
